Assay results: the Kinase Knowledgebase extract (Sharma et al. 2016)

Target: PIK3CG (human) (UniProt P48736)
Assay: Assessment of PIK3CG Kinase Activity

Chain of PIK3CG (human) (P48736 whole entry, looked up): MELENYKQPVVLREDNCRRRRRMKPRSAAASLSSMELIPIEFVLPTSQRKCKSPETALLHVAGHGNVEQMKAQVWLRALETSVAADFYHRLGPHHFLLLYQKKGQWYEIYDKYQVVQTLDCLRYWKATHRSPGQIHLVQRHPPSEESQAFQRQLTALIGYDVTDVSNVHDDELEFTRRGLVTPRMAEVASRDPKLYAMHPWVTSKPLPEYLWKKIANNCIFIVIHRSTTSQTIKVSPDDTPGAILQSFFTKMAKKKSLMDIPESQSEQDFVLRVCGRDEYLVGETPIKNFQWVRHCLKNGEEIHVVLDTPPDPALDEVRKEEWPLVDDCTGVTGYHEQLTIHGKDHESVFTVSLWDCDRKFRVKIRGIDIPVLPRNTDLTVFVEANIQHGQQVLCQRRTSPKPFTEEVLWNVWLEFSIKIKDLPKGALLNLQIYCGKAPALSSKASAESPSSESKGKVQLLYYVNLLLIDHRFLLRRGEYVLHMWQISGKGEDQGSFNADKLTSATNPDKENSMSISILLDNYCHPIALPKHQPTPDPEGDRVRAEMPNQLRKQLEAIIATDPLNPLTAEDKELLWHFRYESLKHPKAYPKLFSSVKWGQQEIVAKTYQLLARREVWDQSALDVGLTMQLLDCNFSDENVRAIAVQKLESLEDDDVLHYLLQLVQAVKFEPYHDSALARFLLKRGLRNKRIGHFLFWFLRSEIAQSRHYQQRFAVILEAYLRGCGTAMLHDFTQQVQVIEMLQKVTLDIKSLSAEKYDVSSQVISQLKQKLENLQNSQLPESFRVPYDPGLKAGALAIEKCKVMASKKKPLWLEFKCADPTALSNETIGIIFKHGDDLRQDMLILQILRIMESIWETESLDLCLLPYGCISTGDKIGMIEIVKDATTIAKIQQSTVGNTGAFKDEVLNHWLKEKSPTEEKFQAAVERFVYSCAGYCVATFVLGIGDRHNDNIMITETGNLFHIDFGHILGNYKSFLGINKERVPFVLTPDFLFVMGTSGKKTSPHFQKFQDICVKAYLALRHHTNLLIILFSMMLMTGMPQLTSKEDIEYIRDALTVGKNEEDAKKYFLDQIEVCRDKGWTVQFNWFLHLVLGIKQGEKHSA

SMILES | IC50
CC(=O)Nc1nc2c(s1)-c1c(cnn1-c1ccc(C(=O)N3CCN(CCO)CC3)cc1)CC2 | < 800 nM
COC(=O)c1nn(-c2ccccc2C(F)(F)F)c2c1CCc1nc(NC(C)=O)sc1-2 | < 800 nM
CC(=O)Nc1nc2c(s1)-c1nc(C3CCCCC3)ncc1CC2 | < 800 nM
CC(=O)Nc1nc2c(s1)-c1c(c(-c3ccco3)nn1-c1ccc(C(=O)N[C@H]3CC[C@H](N4CCCC4)CC3)cc1Cl)CC2 | < 800 nM
COc1cc(OC)cc(-c2ncc3c(n2)-c2sc(NC(C)=O)nc2CC3)c1 | < 800 nM
CC(=O)Nc1nc2c(s1)-c1c(cnn1-c1ccc(C(=O)NCCCCCCNC(=O)c3ccccc3)cc1)CC2 | < 800 nM
C=CCNC(=O)c1ccc(-n2ncc3c2-c2sc(NC(C)=O)nc2CC3)cc1 | < 800 nM
CC(=O)Nc1nc2c(s1)-c1c(c(-c3ccccn3)nn1-c1ccccc1Br)CC2 | < 800 nM
CC(=O)Nc1nc2c(s1)-c1c(c(C(F)(F)F)nn1-c1ccccc1)CC2 | < 800 nM
CC(=O)Nc1nc2c(s1)-c1c(c(-c3ccco3)nn1-c1ccc(C(N)=O)cc1Cl)CC2 | < 800 nM
CC(=O)Nc1nc2c(s1)-c1c(cnn1-c1ccc(C(=O)N3C[C@@H](C)O[C@@H](C)C3)cc1Cl)CC2 | < 800 nM
CC(=O)Nc1nc2c(s1)-c1c(c([C@H]3CCCO3)nn1-c1ccccc1Cl)CC2 | < 800 nM
CC(=O)Nc1nc2c(s1)-c1nc(N3CCOCC3)ncc1CC2 | < 800 nM
CC(=O)Nc1nc2c(s1)-c1c(c([C@@H]3CCCO3)nn1-c1ccccc1Cl)CC2 | < 800 nM
CC(=O)Nc1nc2c(s1)-c1c(cnn1-c1ccc(C(=O)N3CCC(N4CCNC4=O)CC3)cc1)CC2 | < 800 nM
CC(=O)Nc1nc2c(s1)-c1c(cnn1-c1ccc(C(=O)NCCN3CCOCC3)cc1)CC2 | < 800 nM
CC(=O)Nc1nc2c(s1)-c1c(c(-c3ccco3)nn1-c1ccc(C(=O)N[C@H]3CC[C@@H](N4CCCC4)CC3)cc1Cl)CC2 | < 800 nM
CC(=O)Nc1nc2c(s1)-c1c(cnn1-c1ccc(C(=O)NCCN3CCNC3=O)cc1)CC2 | < 800 nM
C#CCN(C(=O)OC(C)(C)C)c1ncc2c(n1)-c1sc(NC(C)=O)nc1CC2 | < 800 nM
CC(=O)Nc1nc2c(s1)-c1c(cnn1C1C=CCCC1)CC2 (stereo not drawn) | < 800 nM
CNC(=O)c1ccc(-c2ncc3c(n2)-c2sc(NC(C)=O)nc2CC3)cc1 | < 800 nM
CCOC(=O)c1n[nH]c2c1CCc1nc(NC(C)=O)sc1-2 | < 800 nM

SMILES | IC50
CC(=O)Nc1nc2c(s1)-c1c(c(C)nn1-c1ccccc1Cl)CC2 | < 800 nM
CC(=O)Nc1nc2c(s1)-c1c(cnn1-c1ccc(C(=O)NC3CCC4(CC3)OCCO4)cc1)CC2 | < 800 nM
CC(=O)Nc1nc2c(s1)-c1nn(C(=O)c3ccco3)cc1CC2 | < 800 nM
CN(C)CCCC(=O)Nc1nc2c(s1)-c1c(cnn1-c1ccccc1)CC2 | < 800 nM
C#Cc1nn(-c2ccccc2C(F)(F)F)c2c1CCc1nc(NC(C)=O)sc1-2 | < 800 nM
CC(=O)Nc1nc2c(s1)-c1c(cnn1-c1ncccn1)CC2 | < 800 nM
CC(=O)Nc1nc2c(s1)-c1c(c(-c3ccccc3)nn1-c1ccccc1C(F)(F)F)CC2 | < 800 nM
CC(=O)Nc1nc2c(s1)-c1c(cnn1-c1ccc(C(=O)NC3CCCC3)cc1)CC2 | < 800 nM
CC(=O)Nc1nc2c(s1)-c1nn(C(=O)c3ccccc3)cc1CC2 | < 800 nM
CC(=O)Nc1nc2c(s1)-c1nc(C3CC3)ncc1CC2 | < 800 nM
CC(=O)Nc1nc2c(s1)-c1c(cnn1-c1ccc(C(=O)NCCN(C)C)cc1)CC2 | < 800 nM
CC(=O)Nc1nc2c(s1)-c1nc(N3CCCCC3)ncc1CC2 | < 800 nM
CC(=O)Nc1nc2c(s1)-c1c(c(C(=O)N3CCSC3)nn1-c1ccccc1)CC2 | < 800 nM
NNC(=O)Nc1nc2c(s1)-c1c(cnn1-c1ccccc1)CC2 | < 800 nM
CC(=O)Nc1nc2c(s1)-c1c(cnn1-c1ccc(C(=O)NCc3cccc(N4CCNC4=O)c3)cc1)CC2 | < 800 nM
CC(=O)Nc1nc2c(s1)-c1c(cnn1-c1ccc(C(=O)NCCc3cn[nH]c3)cc1)CC2 | < 800 nM
CC(=O)Nc1nc2c(s1)-c1c(cnn1C(=O)c1ccccc1)CC2 | < 800 nM
CC(=O)Nc1nc2c(s1)-c1c(cnn1-c1cc(O)cc(Cl)c1)CC2 | < 800 nM
CC(=O)Nc1nc2c(s1)-c1cc(NC(=O)C(C)C)ccc1CC2 | < 800 nM
C#CCNC(=O)Cc1ccc(-n2ncc3c2-c2sc(NC(C)=O)nc2CC3)cc1 | < 800 nM
CC(=O)Nc1nc2c(s1)-c1nc(N3CCCC(C)(C)C3)ncc1CC2 | < 800 nM
COc1cc(-n2ncc3c2-c2sc(NC(C)=O)nc2CC3)nc(OC)n1 | < 800 nM

SMILES | IC50
CCSC(=O)Nc1nc2c(s1)-c1c(cnn1-c1ccccc1)CC2 | < 800 nM
CC(=O)Nc1nc2c(s1)-c1c(cnn1-c1ccc(C(=O)N[C@H](CC(=O)O)C(N)=O)cc1Cl)CC2 | < 800 nM
O=C(Nc1nc2c(s1)-c1c(cnn1-c1ccccc1)C2)N1CCCCC1 | < 800 nM
CC(=O)Nc1nc2c(s1)-c1c(cnn1-c1ccc(C(=O)N[C@H]3CC[C@@H](N4CCN(C)CC4)CC3)cc1)CC2 | < 800 nM
CC(=O)Nc1nc2c(s1)-c1c(cnn1-c1ccc(C(=O)N3CCN(NC(=O)c4ccc(F)cc4)CC3)cc1)CC2 | < 800 nM
CC(=O)Nc1nc2c(s1)-c1c(cnn1-c1ccc(C(=O)NCc3cccnc3)cc1)CC2 | < 800 nM
CC(=O)Nc1nc2c(s1)-c1c(cnn1-c1ccc(C(=O)NCCc3c[nH]cn3)cc1)CC2 | < 800 nM
CC(=O)Nc1nc2c(s1)-c1c(c(-c3ccco3)nn1-c1ccc(C(=O)N(C)C)cc1Cl)CC2 | < 800 nM
C#CCNc1ncc2c(n1)-c1sc(NC(C)=O)nc1CC2 | < 800 nM
CC(=O)Nc1nc2c(s1)-c1nc(-c3ccccc3)[nH]c(=O)c1CC2 | < 800 nM
CC(=O)Nc1nc2c(s1)-c1nc(N(C)CCN3CCN(C)CC3)ncc1CC2 | < 800 nM
CC(=O)Nc1nc2c(s1)-c1c(cnn1-c1ccc(CC(=O)N3CCCC(O)C3)cc1)CC2 (stereo not drawn) | < 800 nM
CC(=O)Nc1nc2c(s1)-c1c(c([C@H]3CCCO3)nn1-c1ccccc1Br)CC2 | < 800 nM
CC(=O)Nc1nc2c(s1)-c1c(cnn1-c1ccc(C(C)(C)C)cc1)CC2 | < 800 nM
CC(=O)Nc1nc2c(s1)-c1c(c(-c3ccccc3)nn1-c1ccccc1Cl)CC2 | < 800 nM
CC(=O)Nc1nc2c(s1)-c1c(cnn1-c1cccc(C(F)(F)F)c1)CC2 | < 800 nM
CC(=O)Nc1nc2c(s1)-c1c(cnn1-c1cccc(C)c1)CC2 | < 800 nM
CC(=O)Nc1nc2c(s1)-c1c(cnn1-c1cccc3ccccc13)CC2 | < 800 nM
CC(=O)Nc1nc2c(s1)-c1c(cnn1-c1cccc(C)c1C)CC2 | < 800 nM
CN(C)CCNC(=O)Nc1nc2c(s1)-c1c(cnn1-c1ccccc1Cl)C2 | < 800 nM
CC(=O)Nc1nc2c(s1)-c1c(cnn1-c1ccc(C(=O)N3CCCC3c3ccncc3)cc1)CC2 (stereo not drawn) | < 800 nM

The next lines start with the values.

IC50 | SMILES
< 800 nM | CC(=O)Nc1nc2c(s1)-c1c(cnn1-c1ccccc1C(F)(F)F)C2
< 800 nM | CC(=O)Nc1nc2c(s1)-c1c(cnn1-c1ccc(CC(=O)N3CCC4(CC3)CNC(=O)O4)cc1)CC2
< 800 nM | CC(=O)Nc1nc2c(s1)-c1c(cnn1-c1cc(S(N)(=O)=O)ccc1Cl)CC2
< 800 nM | CC(=O)Nc1nc2c(s1)-c1c(cnn1-c1ccc(C(=O)Nc3ccc(N4CCN(C)CC4)cc3)cc1)CC2
< 800 nM | CC(=O)Nc1nc2c(s1)-c1c(cnn1-c1ccc(C(=O)N3CCS(=O)(=O)CC3)cc1)CC2
< 800 nM | CC(=O)Nc1nc2c(s1)-c1c(cnn1-c1ccc(CC(=O)NCC3OCCO3)cc1)CC2
< 800 nM | CC(=O)Nc1nc2c(s1)-c1c(cnn1-c1ccc(C(=O)N3CCC(N4CCOCC4)CC3)cc1)CC2
< 800 nM | CC(=O)Nc1nc2c(s1)-c1c(cnn1-c1ccc(C(=O)N[C@H](CCC(=O)O)C(N)=O)cc1Cl)CC2
< 800 nM | CC(=O)Nc1nc2c(s1)-c1c(cnn1-c1ccc(C(=O)NCc3nc4ccccc4n3C)cc1)CC2
< 800 nM | CC(=O)Nc1nc2c(s1)-c1c(c(-c3ccccn3)nn1-c1ccccc1C)CC2
< 800 nM | CC(=O)Nc1nc2c(s1)-c1c(cnn1-c1ccc(C(=O)NC(CN3CCOCC3)CN3CCOCC3)cc1)CC2
< 800 nM | CC(=O)Nc1nc2c(s1)-c1nc(C(C)C)ncc1CC2
< 800 nM | CC(=O)Nc1nc2c(s1)-c1c(cnn1-c1ccc(C(=O)N[C@H](C(N)=O)C(C)C)cc1Cl)CC2
< 800 nM | CC(=O)Nc1nc2c(s1)-c1c(c(-c3ccco3)nn1-c1ccccc1C)CC2
< 800 nM | CC(=O)Nc1nc2c(s1)-c1c(c(N)nn1-c1ccccc1)CC2
< 800 nM | CC(=O)Nc1nc2c(s1)-c1c(cnn1-c1ccc(CC(=O)Nc3cc(O)[nH]n3)cc1)CC2
< 800 nM | Cc1ccccc1-c1ncc2c(n1)-c1sc(NC(N)=O)nc1CC2

IC50 | SMILES
< 800 nM | CN(C)c1ncc2c(n1)-c1sc(NC(N)=O)nc1CC2
< 800 nM | CC(=O)Nc1nc2c(s1)-c1c(cnn1-c1ccc(C(=O)NCc3ccnn3C)cc1)CC2
< 800 nM | O=C(Nc1nc2c(s1)-c1c(cnn1-c1ccccc1)CC2)N1CCOCC1
< 800 nM | CC(=O)Nc1nc2c(s1)-c1c(cnn1-c1ccc(CC(=O)N3CCC(C(N)=O)CC3)cc1)CC2
< 800 nM | CC(=O)Nc1nc2c(s1)-c1nc(C(F)(F)F)ncc1CC2
< 800 nM | CC(=O)Nc1nc2c(s1)-c1c(cnn1-c1ccc(Cl)cc1)CC2
< 800 nM | CC(=O)Nc1nc2c(s1)-c1c(c(-c3cccnc3)nn1-c1ccccc1Cl)CC2
< 800 nM | CC(=O)Nc1nc2c(s1)-c1c(cnn1-c1ccc(C(=O)NCCC(=O)O)cc1)CC2
< 800 nM | CC(=O)Nc1nc2c(s1)-c1c(cnn1-c1ccc(C(=O)Nc3ccc(C4CCN(C)CC4)cc3)cc1)CC2
< 800 nM | COCc1nn(-c2ccc(C(=O)N(C)Cc3ccncc3)cc2Cl)c2c1CCc1nc(NC(C)=O)sc1-2
< 800 nM | CN(C)CCCC(=O)Nc1nc2c(s1)-c1c(cnn1-c1ccccc1Cl)C2
< 800 nM | CC(=O)Nc1nc2c(s1)-c1c(cnn1-c1ccc(C(=O)N[C@H]3CC[C@H](N4CCOCC4)CC3)cc1)CC2
< 800 nM | CC(=O)Nc1nc2c(s1)-c1c(cnn1-c1cccc([N+](=O)[O-])c1)CC2
< 800 nM | CNC(=O)Nc1nc2c(s1)-c1c(cnn1-c1ccccc1Cl)C2
< 800 nM | CC(=O)Nc1nc2c(s1)-c1c(cnn1-c1ccc(CC(=O)O)cc1)CC2
< 800 nM | COC(=O)c1nn(-c2c(Cl)cccc2Cl)c2c1CCc1nc(NC(C)=O)sc1-2
